Measured values from PubChem BioAssay AID248 (DTP/NCI, 2004).
Where “and” joins values, the source holds several entries; their conditions need not be identical. Equal entries are not always repeated. Toxic doses and inconclusive results are not listed.

System: L1210 leukemia ip in BDF1 mice, survival T/C
Test: NCI In Vivo Anticancer Drug Screen. Data for tumor model L1210 Leukemia (intraperitoneal) in B6D2F1 (BDF1) mice
Settings: higher = longer survival
Procedure, shortened: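 Tumor cells were implanted, animals were treated, and survival was followed. The result divides the treated measurement by the vehicle-control measurement.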

[1] = endpoint: mean survival time, dose: 100.0 mg/kg/injection, schedule: Q01DX001 (ip), vehicle: saline
[2] = endpoint: mean survival time, dose: 200.0 mg/kg/injection, schedule: Q01DX001 (ip), vehicle: saline
[3] = endpoint: mean survival time, dose: 400.0 mg/kg/injection, schedule: Q01DX001 (ip), vehicle: saline
[4] = endpoint: mean survival time, dose: 100.0 mg/kg/injection, schedule: Q04DX003 (ip), vehicle: saline with Tween-80
[5] = endpoint: mean survival time, dose: 200.0 mg/kg/injection, schedule: Q04DX003 (ip), vehicle: saline with Tween-80
[6] = endpoint: mean survival time, dose: 400.0 mg/kg/injection, schedule: Q04DX003 (ip), vehicle: saline with Tween-80
[7] = endpoint: mean survival time, dose: 100.0 mg/kg/injection, schedule: Q04DX003 (ip), vehicle: saline

CC(C)[C@]12O[C@H]1[C@@H]1O[C@]13[C@]1(O[C@H]1C[C@H]1C4=C(C(=O)OC4)[C@@H](O)C[C@@]13C)[C@@H]2O
T/C (endpoint: mean survival time, dose: 2.4 micrograms/kg/injection, schedule: Q01DX009 (oral), vehicle: Klucel (hydroxypropylcellulose) (HPC)): 105 % of control
T/C (endpoint: mean survival time, dose: 4.8 micrograms/kg/injection, schedule: Q01DX009 (oral), vehicle: Klucel (hydroxypropylcellulose) (HPC)): 102 % of control
T/C (endpoint: mean survival time, dose: 9.5 micrograms/kg/injection, schedule: Q01DX009 (oral), vehicle: Klucel (hydroxypropylcellulose) (HPC)): 101 % of control
T/C (endpoint: mean survival time, dose: 13.0 micrograms/kg/injection, schedule: Q01DX009 (ip), vehicle: saline): 94 % of control and 111 % of control
T/C (endpoint: mean survival time, dose: 19.0 micrograms/kg/injection, schedule: Q01DX009 (oral), vehicle: Klucel (hydroxypropylcellulose) (HPC)): 116 % of control
T/C (endpoint: mean survival time, dose: 25.0 micrograms/kg/injection, schedule: Q01DX009 (ip), vehicle: saline): 108 % of control and 110 % of control
T/C (endpoint: mean survival time, dose: 38.0 micrograms/kg/injection, schedule: Q01DX009 (oral), vehicle: Klucel (hydroxypropylcellulose) (HPC)): 107 % of control
T/C (endpoint: mean survival time, dose: 38.0 micrograms/kg/injection, schedule: Q01DX009 (oral), vehicle: saline + alcohol): 103 % of control
T/C (endpoint: mean survival time, dose: 100.0 micrograms/kg/injection, schedule: Q01DX009 (ip), vehicle: saline): 150 % of control and 159 % of control
T/C (endpoint: mean survival time, dose: 200.0 micrograms/kg/injection, schedule: Q01DX009 (ip), vehicle: saline): 198 % of control
T/C (endpoint: median survival time, dose: 0.06 mg/kg/injection, schedule: Q01DX009 (ip), vehicle: saline + alcohol): 113 % of control
T/C (endpoint: median survival time, dose: 0.06 mg/kg/injection, schedule: Q01DX009 (ip), vehicle: saline with Tween-80): 114 % of control and 124 % of control
T/C (endpoint: median survival time, dose: 0.06 mg/kg/injection, schedule: Q01DX009 (sc), vehicle: saline + alcohol): 102 % of control
T/C (endpoint: median survival time, dose: 0.06 mg/kg/injection, schedule: Q04DX003 (ip), vehicle: saline + alcohol): 98 % of control
T/C (endpoint: median survival time, dose: 0.12 mg/kg/injection, schedule: Q01DX009 (sc), vehicle: saline + alcohol): 107 % of control
T/C (endpoint: median survival time, dose: 0.12 mg/kg/injection, schedule: Q04DX003 (ip), vehicle: saline + alcohol): 106 % of control
T/C (endpoint: median survival time, dose: 0.12 mg/kg/injection, schedule: Q08DX002 (ip), vehicle: saline + alcohol): 102 % of control
T/C (endpoint: median survival time, dose: 0.13 mg/kg/injection, schedule: Q01DX009 (ip), vehicle: saline + alcohol): 156 % of control
T/C (endpoint: median survival time, dose: 0.13 mg/kg/injection, schedule: Q01DX009 (oral), vehicle: saline + alcohol): 100 % of control and 120 % of control
T/C (endpoint: median survival time, dose: 0.25 mg/kg/injection, schedule: Q01DX001 (ip), vehicle: saline + alcohol): 102 % of control
T/C (endpoint: median survival time, dose: 0.25 mg/kg/injection, schedule: Q01DX009 (ip), vehicle: saline + alcohol): 178 % of control and 195 % of control
T/C (endpoint: median survival time, dose: 0.25 mg/kg/injection, schedule: Q01DX009 (ip), vehicle: saline with Tween-80): 185 % of control and 202 % of control
T/C (endpoint: median survival time, dose: 0.25 mg/kg/injection, schedule: Q01DX009 (sc), vehicle: saline + alcohol): 151 % of control
T/C (endpoint: median survival time, dose: 0.25 mg/kg/injection, schedule: Q04DX003 (ip), vehicle: saline + alcohol): 107 % of control
T/C (endpoint: median survival time, dose: 0.25 mg/kg/injection, schedule: Q08DX002 (ip), vehicle: saline + alcohol): 109 % of control
T/C (endpoint: median survival time, dose: 0.5 mg/kg/injection, schedule: Q01DX001 (ip), vehicle: saline + alcohol): 113 % of control
T/C (endpoint: median survival time, dose: 0.5 mg/kg/injection, schedule: Q01DX009 (ip), vehicle: saline + alcohol): 95 % of control
T/C (endpoint: median survival time, dose: 0.5 mg/kg/injection, schedule: Q04DX003 (ip), vehicle: saline + alcohol): 113 % of control
T/C (endpoint: median survival time, dose: 0.5 mg/kg/injection, schedule: Q08DX002 (ip), vehicle: saline + alcohol): 114 % of control
T/C (endpoint: median survival time, dose: 8.0 micrograms/kg/injection, schedule: Q03HX024 (ip), vehicle: saline + alcohol): 104 % of control
T/C (endpoint: median survival time, dose: 8.0 micrograms/kg/injection, schedule: Q03HX024 (sc), vehicle: saline + alcohol): 94 % of control
T/C (endpoint: median survival time, dose: 15.6 micrograms/kg/injection, schedule: Q03HX024 (sc), vehicle: saline + alcohol): 98 % of control
T/C (endpoint: median survival time, dose: 16.0 micrograms/kg/injection, schedule: Q03HX024 (oral), vehicle: saline + alcohol): 98 % of control and 101 % of control
T/C (endpoint: median survival time, dose: 31.2 micrograms/kg/injection, schedule: Q03HX008 (ip), vehicle: saline + alcohol): 117 % of control
T/C (endpoint: median survival time, dose: 31.2 micrograms/kg/injection, schedule: Q03HX024 (ip), vehicle: saline + alcohol): 157 % of control
T/C (endpoint: median survival time, dose: 31.2 micrograms/kg/injection, schedule: Q03HX024 (sc), vehicle: saline + alcohol): 103 % of control
T/C (endpoint: median survival time, dose: 31.3 micrograms/kg/injection, schedule: Q03HX024 (oral), vehicle: saline + alcohol): 110 % of control
T/C (endpoint: median survival time, dose: 62.5 micrograms/kg/injection, schedule: Q03HX024 (ip), vehicle: saline + alcohol): 162 % of control
T/C (endpoint: median survival time, dose: 62.5 micrograms/kg/injection, schedule: Q03HX024 (sc), vehicle: saline + alcohol): 165 % of control

O=C(COc1ccc(Br)cc1Br)OCCBr
T/C [1]: 97 % of control
T/C [2]: 105 % of control
T/C [3]: 100 % of control

C(=N\Nc1ccccc1)/C(=N\Nc1ccccc1)c1ccccc1
T/C [4]: 103 % of control
T/C [5]: 97 % of control
T/C [6]: 98 % of control

COc1ccccc1-n1c(=O)c(N=Nc2ccc(Br)cc2)c(O)n(-c2ccccc2Cl)c1=S
T/C (endpoint: mean survival time, dose: 37.5 mg/kg/injection, schedule: Q01DX001 (ip), vehicle: Klucel (hydroxypropylcellulose) (HPC)): 107 % of control
T/C (endpoint: mean survival time, dose: 75.0 mg/kg/injection, schedule: Q01DX001 (ip), vehicle: Klucel (hydroxypropylcellulose) (HPC)): 116 % of control
T/C (endpoint: mean survival time, dose: 150.0 mg/kg/injection, schedule: Q01DX001 (ip), vehicle: Klucel (hydroxypropylcellulose) (HPC)): 98 % of control

COC(=O)c1ccccc1OC(=S)N(C)C
T/C [4]: 113 % of control
T/C [5]: 103 % of control
T/C [6]: 114 % of control

OCCN1CCN(Cc2cccc3ccccc23)CC1
T/C (endpoint: mean survival time, dose: 25.0 mg/kg/injection, schedule: Q01DX009 (ip), vehicle: saline): 112 % of control
T/C (endpoint: mean survival time, dose: 25.0 mg/kg/injection, schedule: Q04DX003 (ip), vehicle: saline): 101 % of control
T/C (endpoint: mean survival time, dose: 50.0 mg/kg/injection, schedule: Q01DX009 (ip), vehicle: saline): 98 % of control
T/C (endpoint: mean survival time, dose: 50.0 mg/kg/injection, schedule: Q04DX003 (ip), vehicle: saline): 102 % of control
T/C [1]: 103 % of control
T/C (endpoint: mean survival time, dose: 100.0 mg/kg/injection, schedule: Q01DX009 (ip), vehicle: saline): 102 % of control
T/C [7]: 98 % of control

Nc1nnc(N)n1N
T/C (endpoint: mean survival time, dose: 87.5 mg/kg/injection, schedule: Q04DX003 (ip), vehicle: Klucel (hydroxypropylcellulose) (HPC)): 105 % of control
T/C (endpoint: mean survival time, dose: 175.0 mg/kg/injection, schedule: Q04DX003 (ip), vehicle: Klucel (hydroxypropylcellulose) (HPC)): 100 % of control
T/C (endpoint: mean survival time, dose: 350.0 mg/kg/injection, schedule: Q04DX003 (ip), vehicle: Klucel (hydroxypropylcellulose) (HPC)): 103 % of control

CCOC(=O)c1ccc(NC(=O)Nc2cc(C)ccn2)cc1
T/C (endpoint: mean survival time, dose: 100.0 mg/kg/injection, schedule: Q01DX009 (ip), vehicle: Klucel (hydroxypropylcellulose) (HPC)): 96 % of control
T/C (endpoint: mean survival time, dose: 200.0 mg/kg/injection, schedule: Q01DX009 (ip), vehicle: Klucel (hydroxypropylcellulose) (HPC)): 107 % of control
T/C (endpoint: mean survival time, dose: 400.0 mg/kg/injection, schedule: Q01DX009 (ip), vehicle: Klucel (hydroxypropylcellulose) (HPC)): 105 % of control

O=C(O)C1c2ccccc2-c2ccccc21
T/C [1]: 113 % of control
T/C [2]: 91 % of control
T/C [3]: 101 % of control

CCc1cc(S(=O)(=O)O)c(CC)c(CC)c1CC
T/C (endpoint: mean survival time, dose: 100.0 mg/kg/injection, schedule: Q01DX009 (ip), vehicle: saline with Tween-80): 97 % of control

Cc1cccc(SC(=O)SC(C)CN)c1 (centres undefined)
T/C (endpoint: mean survival time, dose: 25.0 mg/kg/injection, schedule: Q04DX002 (ip), vehicle: saline): 99 % of control
T/C (endpoint: mean survival time, dose: 50.0 mg/kg/injection, schedule: Q04DX002 (ip), vehicle: saline): 105 % of control
T/C (endpoint: mean survival time, dose: 100.0 mg/kg/injection, schedule: Q04DX002 (ip), vehicle: saline): 94 % of control and 99 % of control

NN(C(=O)c1ccc([N+](=O)[O-])cc1)c1ccccc1
T/C (endpoint: mean survival time, dose: 75.0 mg/kg/injection, schedule: Q01DX001 (ip), vehicle: saline): 95 % of control
T/C (endpoint: mean survival time, dose: 150.0 mg/kg/injection, schedule: Q01DX001 (ip), vehicle: saline): 93 % of control
T/C (endpoint: mean survival time, dose: 300.0 mg/kg/injection, schedule: Q01DX001 (ip), vehicle: saline): 90 % of control

CCOC(=O)C(C(C)=O)C(c1ccc(OCc2ccccc2)c(C)c1)C(C(C)=O)C(=O)OCC (centres undefined)
T/C [7]: 94 % of control
T/C (endpoint: mean survival time, dose: 200.0 mg/kg/injection, schedule: Q04DX003 (ip), vehicle: saline): 94 % of control
T/C (endpoint: mean survival time, dose: 400.0 mg/kg/injection, schedule: Q04DX003 (ip), vehicle: saline): 95 % of control

C[N+]1(C)CCN(c2ccccc2)CC1
T/C (endpoint: mean survival time, dose: 9.38 mg/kg/injection, schedule: Q01DX001 (ip), vehicle: saline): 108 % of control
T/C (endpoint: mean survival time, dose: 18.75 mg/kg/injection, schedule: Q01DX001 (ip), vehicle: saline): 105 % of control
